Measurements from the supplement of paper PMC10307832.

What was measured:
Assay in all cases: relative viability (nuclei count vs DMSO), 5 days (fraction); higher = more cells survive
[1] = system: 201T
Outline: (§1)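 Relative viability was taken as the ratio of nuclei in treated wells to nuclei in vehicle wells. Lung cancer cell lines in 1536-well plates received compounds by pin tool one day after seeding, either one drug alone or a fixed anchor-drug dose plus five library-drug doses (not always all listed) in √10 steps. Nuclei were counted on 4× images after 5 days of treatment, and values are medians of duplicate plates.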

[2] = system: BEN
Outline: as §1

[3] = system: CAL-12T
Outline: as §1

[4] = system: ChaGo-K-1
Outline: as §1

[5] = system: EMC-BAC-2
Outline: as §1

[6] = system: H3255
Outline: as §1

[7] = system: HCC-15
Outline: as §1

[8] = system: HOP-62
Outline: as §1

[9] = system: LU99A
Outline: as §1

[10] = system: NCI-H1395
Outline: as §1

[11] = system: NCI-H1650
Outline: as §1

[12] = system: NCI-H1734
Outline: as §1

[13] = system: NCI-H1944
Outline: as §1

[14] = system: NCI-H2009
Outline: as §1

[15] = system: NCI-H2023
Outline: as §1

[16] = system: NCI-H2342
Outline: as §1

[17] = system: NCI-H2347
Outline: as §1

[18] = system: NCI-H23
Outline: as §1

[19] = system: NCI-H2405
Outline: as §1

[20] = system: NCI-H358
Outline: as §1

[21] = system: NCI-H441
Outline: as §1

[22] = system: NCI-H522
Outline: as §1

[23] = system: NCI-H650
Outline: as §1

[24] = system: SK-LU-1
Outline: as §1

[25] = system: SW 900
Outline: as §1

With `Nc1cccc2c1CN(C1CCC(=O)NC1=O)C2=O` (centres undefined) [Lenalidomide] + CC(=O)Nc1cccc(-n2c(=O)n(C3CC3)c(=O)c3c(Nc4ccc(I)cc4F)n(C)c(=O)c(C)c32)c1 [Trametinib] (partner 0.02 µM) the relative viability ([1]; first compound 0.253 µM) was 0.719, the relative viability ([1]; first compound 0.8 µM) was 0.754 and the relative viability ([1]; first compound 2.53 µM) was 0.762. For the same molecule, the relative viability ([1]; first compound 8 µM) was 0.713, the relative viability ([2]; first compound 0.253 µM) was 1.1 and the relative viability ([2]; first compound 0.8 µM) was 1.07. It also gave a relative viability ([2]; first compound 2.53 µM) of 1.18, a relative viability ([2]; first compound 8 µM) of 0.913 and a relative viability ([3]; first compound 0.253 µM) of 0.371. It also gave a relative viability ([3]; first compound 0.8 µM) of 0.292, a relative viability ([3]; first compound 2.53 µM) of 0.431 and a relative viability ([3]; first compound 8 µM) of 0.306. For the same molecule, the relative viability ([4]; first compound 0.253 µM) was 0.925, the relative viability ([4]; first compound 0.8 µM) was 0.897 and the relative viability ([4]; first compound 2.53 µM) was 1.02. It also gave a relative viability ([4]; first compound 8 µM) of 0.904, a relative viability ([5]; first compound 0.253 µM) of 0.888 and a relative viability ([5]; first compound 0.8 µM) of 0.848. The relative viability ([5]; first compound 2.53 µM) was 0.922, the relative viability ([5]; first compound 8 µM) was 0.747 and the relative viability ([6]; first compound 0.253 µM) was 0.547. It also gave a relative viability ([6]; first compound 0.8 µM) of 0.624, a relative viability ([6]; first compound 2.53 µM) of 0.661 and a relative viability ([6]; first compound 8 µM) of 0.541. The relative viability ([7]; first compound 0.253 µM) was 0.412, the relative viability ([7]; first compound 0.8 µM) was 0.427 and the relative viability ([7]; first compound 2.53 µM) was 0.377. The relative viability ([7]; first compound 8 µM) was 0.334, the relative viability ([8]; first compound 0.253 µM) was 0.34 and the relative viability ([8]; first compound 0.8 µM) was 0.338. For the same molecule, the relative viability ([8]; first compound 2.53 µM) was 0.4, the relative viability ([8]; first compound 8 µM) was 0.363 and the relative viability ([9]; first compound 0.253 µM) was 0.509. It also gave a relative viability ([9]; first compound 0.8 µM) of 0.537, a relative viability ([9]; first compound 2.53 µM) of 0.644 and a relative viability ([9]; first compound 8 µM) of 0.425. For the same molecule, the relative viability ([10]; first compound 0.253 µM) was 0.988, the relative viability ([10]; first compound 2.53 µM) was 1.1 and the relative viability ([10]; first compound 8 µM) was 0.929. The relative viability ([11]; first compound 0.253 µM) was 0.421, the relative viability ([11]; first compound 0.8 µM) was 0.432 and the relative viability ([11]; first compound 2.53 µM) was 0.551. It also gave a relative viability ([11]; first compound 8 µM) of 0.684, a relative viability ([12]; first compound 0.253 µM) of 0.69 and a relative viability ([12]; first compound 0.8 µM) of 0.606. For the same molecule, the relative viability ([12]; first compound 2.53 µM) was 0.702, the relative viability ([12]; first compound 8 µM) was 0.605 and the relative viability ([13]; first compound 0.253 µM) was 0.385. The relative viability ([13]; first compound 2.53 µM) was 0.427, the relative viability ([13]; first compound 8 µM) was 0.395 and the relative viability ([14]; first compound 0.253 µM) was 0.297. The relative viability ([14]; first compound 0.8 µM) was 0.28, the relative viability ([14]; first compound 2.53 µM) was 0.283 and the relative viability ([14]; first compound 8 µM) was 0.28. The relative viability ([15]; first compound 0.253 µM) was 0.554, the relative viability ([15]; first compound 0.8 µM) was 0.584 and the relative viability ([15]; first compound 2.53 µM) was 0.444. The relative viability ([15]; first compound 8 µM) was 0.504, the relative viability ([16]; first compound 0.253 µM) was 0.796 and the relative viability ([16]; first compound 0.8 µM) was 0.894. For the same molecule, the relative viability ([16]; first compound 2.53 µM) was 0.739, the relative viability ([16]; first compound 8 µM) was 0.692 and the relative viability ([17]; first compound 0.253 µM) was 0.329. For the same molecule, the relative viability ([17]; first compound 0.8 µM) was 0.279, the relative viability ([17]; first compound 2.53 µM) was 0.323 and the relative viability ([17]; first compound 8 µM) was 0.179. For the same molecule, the relative viability ([18]; first compound 0.253 µM) was 0.398, the relative viability ([18]; first compound 2.53 µM) was 0.426 and the relative viability ([18]; first compound 8 µM) was 0.412. It also gave a relative viability ([19]; first compound 0.253 µM) of 0.648, a relative viability ([19]; first compound 0.8 µM) of 0.657 and a relative viability ([19]; first compound 2.53 µM) of 0.654. For the same molecule, the relative viability ([19]; first compound 8 µM) was 0.546, the relative viability ([20]; first compound 0.8 µM) was 0.132 and the relative viability ([20]; first compound 2.53 µM) was 0.133. For the same molecule, the relative viability ([20]; first compound 8 µM) was 0.19, the relative viability ([21]; first compound 0.253 µM) was 0.484 and the relative viability ([21]; first compound 0.8 µM) was 0.258. It also gave a relative viability ([21]; first compound 2.53 µM) of 0.623, a relative viability ([21]; first compound 8 µM) of 0.387 and a relative viability ([22]; first compound 0.253 µM) of 0.813. It also gave a relative viability ([22]; first compound 0.8 µM) of 0.803, a relative viability ([22]; first compound 2.53 µM) of 0.725 and a relative viability ([22]; first compound 8 µM) of 0.623. The relative viability ([23]; first compound 0.253 µM) was 0.983, the relative viability ([23]; first compound 0.8 µM) was 1 and the relative viability ([23]; first compound 2.53 µM) was 0.963. For the same molecule, the relative viability ([23]; first compound 8 µM) was 0.891, the relative viability ([24]; first compound 0.253 µM) was 0.515 and the relative viability ([24]; first compound 0.8 µM) was 0.443. It also gave a relative viability ([24]; first compound 2.53 µM) of 0.596, a relative viability ([24]; first compound 8 µM) of 0.432 and a relative viability ([25]; first compound 2.53 µM) of 1. It also gave a relative viability ([25]; first compound 8 µM) of 0.76.
